Results from US12030877B2, “Prostaglandin E synthase inhibitors and methods for utilizing the same” (University of Kentucky Research Foundation, priority 2016, dated 2024).
Read-outs that look alike come from different tables or passages of the source.

Tests used:
mPGES-1 Mouse enzyme = target: T1, mPGES-1 Mouse enzyme (Mus musculus, UniProt Q9JM51); assay: mPGES-1 enzyme activity assay (PGE2 enzyme immunoassay), mouse enzyme; assay type: biochemical; conditions: for inhibition at 10 µM: compound at a concentration of 10 μM, read-out: % inhibition of the compound against mPGES-1, Mouse enzyme; for IC50: recombinant microsomal enzyme, means ± SD, triplicate
T1 construct: made in house; host or cells: FreeStyle 293-F cells, crude microsomal preparation
T1 sequence (Q9JM51 1-153): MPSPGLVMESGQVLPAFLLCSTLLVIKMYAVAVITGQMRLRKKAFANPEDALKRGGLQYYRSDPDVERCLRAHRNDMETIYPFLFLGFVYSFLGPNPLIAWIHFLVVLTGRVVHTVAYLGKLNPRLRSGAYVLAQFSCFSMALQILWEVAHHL
Description: (§1) Studies were conducted to characterize the inhibitory activity against recombinant mPGES-1 of the compounds synthesized in accordance with Examples 1-4, and disclosed herein.
(§2) Briefly, FreeStyle 293-F cells were cultured following manufacturer's manual in FreeStyle 293 expression medium on orbit rotate shaker in 8% CO2 incubator at 37° C. Cells were transfected with 1.5 μg/mL of mPGES-1/pcDNA3 construct using FreeStyle Max reagent at a cell density of 1×10^6 for 2 days. Transfected cells were collected, washed, and sonicated in TSES buffer (15 mM Tris-HCl, pH 8.0 plus 0.25 M sucrose, 0.1 mM EDTA and 1 mM DTT) on ice. The broken cells were first centrifuged at 12,500×g for 10 min. The supernatant was further centrifuged at 105,000×g for 1 hr at 4° C. The pellet was washed and homogenized in PBS buffer. The crude microsomal mPGES-1 preparation was aliquoted and stored at −80° C. The crude protein concentration was 8 mg/mL.
(§3) The enzyme activity assays were performed on ice in 1.5 ml microfuge tubes by using the expressed mPGES-1. The reaction mixture contained: 0.2 M Na2HPO4/NaH2PO4, pH 7.2, 10 μL; 0.1 M GSH, 2.5 μL; diluted microsomal enzyme (80 μg/mL), 1 μL; PGH2 (0.31 mM in DMF), 5 μL; 1 μL inhibitor; and H2O in a final reaction volume of 100 μL. PGH2 was stored in dry ice and used to initiate the reaction.
(§4) Compounds were incubated with the enzyme for 15 min at room temperature before the addition of cold PGH2 (1 μM final) to initiate the enzyme reaction. After 30 s, 10 μL of SnCl2 (40 mg/mL) in ethanol was added to stop the reaction. The nonenzymatic conversion of PGH2 to PGE2 was performed in the same buffer devoid of enzyme. The reaction mixture was placed on ice until PGE2 production was determined by the PGE2 enzyme immunoassay as described earlier. IC50 values of the inhibitors were calculated by using the GraphPad Prism 4.0 program. The results are set forth in the tables provided in Examples 7-10.

mPGES-1 = target: T2, mPGES-1 (Homo sapiens, UniProt O14684); assay: mPGES-1 enzyme activity assay (PGE2 enzyme immunoassay), human enzyme; assay type: biochemical; parameters: made in house; host or cells: FreeStyle 293-F cells, crude microsomal preparation; conditions: recombinant microsomal enzyme, means ± SD, triplicate
T2 sequence (O14684 1-152): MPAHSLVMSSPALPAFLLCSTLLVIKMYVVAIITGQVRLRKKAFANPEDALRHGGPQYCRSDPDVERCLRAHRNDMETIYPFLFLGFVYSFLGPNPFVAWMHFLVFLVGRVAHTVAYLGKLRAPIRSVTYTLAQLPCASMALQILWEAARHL
Description: as §1, §2, §3, §4

[1] = read-out: IC50 against mPGES-1, Human enzyme
[2] = IC50 against mPGES-1, Mouse enzyme
[3] = IC50 against mPGES-1, Human enzyme
[4] = read-out: IC50 against mPGES-1, Mouse enzyme

| Compound | inhibition at 10 µM (mPGES-1 Mouse enzyme) | IC50 (mPGES-1; [1]) | IC50 (mPGES-1 Mouse enzyme; [2]) | IC50 (mPGES-1; [3]) | IC50 (mPGES-1 Mouse enzyme; [4]) |
| --- | --- | --- | --- | --- | --- |
| N#C/C(=C/c1cn(-c2ccccc2)nc1-c1ccc(OCc2ccccc2)cc1)C(=O)O [VII-20] | 16% | 806 ± 162 nM |  |  |  |
| CCCCCCOc1ccc(-c2nn(-c3ccc(Cl)cc3)cc2/C=C(/C#N)C(=O)O)cc1 [VII-15] | 48% | 83 ± 30 nM |  |  |  |
| O=C1NC(=O)C(=Cc2ccc(OCCCCc3ccccc3)c(Cl)c2)C(=O)N1 [Compound I-33] |  |  | 2790 ± 525 nM | 73 ± 10 nM |  |
| O=C1NC(=O)C(=Cc2ccc(OCC3CCCCC3)c([N+](=O)[O-])c2)C(=O)N1 [Compound I-38] | 42% |  |  | 1110 ± 104 nM |  |
| O=C(O)CN1C(=O)S/C(=C2\C(=O)N(CC3CCCCC3)c3ccc(-c4ccc(C#Cc5ccccc5)cc4)cc32)C1=O [II-21] |  | 91 ± 23 nM |  |  | 1960 ± 348 nM |
| O=C(O)CN1C(=O)S/C(=C2\C(=O)N(CCCOc3ccccc3)c3ccccc32)C1=O [II-10] | 41% | 805 ± 100 nM |  |  |  |
| O=C(O)CN1C(=O)S/C(=C2\C(=O)N(Cc3ccc(Cl)cc3)c3ccccc32)C1=O [II-02] | 45% | 614 ± 63 nM |  |  |  |
| O=C(O)CN1C(=O)S/C(=C2\C(=O)N(CCCCc3ccccc3)c3ccccc32)C1=O [II-05] | 61% | 963 ± 87 nM |  |  |  |
| O=C1NC(=O)C(=Cc2ccc(OCCCC3CCCCC3)c([N+](=O)[O-])c2)C(=O)N1 [Compound I-26] |  |  | 373 ± 51 nM | 156 ± 30 nM |  |
| CCCCCCOc1ccc(-c2nn(-c3ccc(Cl)cc3)cc2C=C2C(=O)NC(=S)NC2=O)cc1 [VI-13] |  | 52 ± 15 nM | 1770 ± 1160 nM |  |  |
| O=C(O)CN1C(=O)S/C(=C2\C(=O)N(CCCOc3ccc4ccccc4c3)c3ccccc32)C1=O [II-11] |  | 1680 ± 168 nM |  |  | 1020 ± 131 nM |
| O=C(O)CN1C(=O)S/C(=C2\C(=O)N(CCCCC3CCCCC3)c3ccc(-c4ccccc4)cc32)C1=O [II-26] |  | 13 ± 3 nM |  |  | 1130 ± 244 nM |
| O=C(O)CN1C(=O)S/C(=C2\C(=O)N(CCCCC3CCCCC3)c3ccccc32)C1=O [II-09] |  | 499 ± 108 nM |  |  | 947 ± 183 nM |
| O=C1NC(=O)C(=Cc2ccc(OCCCCC3CCCCC3)cc2)C(=O)N1 [Compound I-01] |  | 622 ± 121 nM | 7080 ± 627 nM |  |  |
| Cc1cc(C=C2C(=O)NC(=O)NC2=O)ccc1OCCCCC1CCCCC1 [Compound I-04] | 25% |  |  | 82 ± 10 nM |  |
| CCOc1cc(C=C2C(=O)NC(=O)NC2=O)ccc1OCCCCC1CCCCC1 [Compound I-07] |  |  | 2410 ± 339 nM | 186 ± 26 nM |  |
| O=C(O)CN1C(=O)/C(=C2\SC(=S)NC2=O)c2ccccc21 [II-30] | 6.1% | 211 ± 67 nM |  |  |  |
| COc1cc(C=C2C(=O)NC(=O)NC2=O)cc(Cl)c1OCCCCC1CCCCC1 [Compound I-09] |  |  | 360 ± 56 nM | 22 ± 7 nM |  |
| CCCCCCCCCCOc1ccc(-c2nn(-c3ccccc3)cc2/C=C(/C#N)C(=O)O)cc1 [VII-18] | 4.3% | 197 ± 32 nM |  |  |  |
| CCCCCCCCOc1ccc(-c2nn(-c3ccccc3)cc2C=C2C(=O)NC(=S)NC2=O)cc1 [VI-14] |  |  | 1130 ± 131 nM | 113 ± 23 nM |  |
| CCCCCCCOc1ccc(C=C2C(=O)NC(=O)NC2=O)cc1[N+](=O)[O-] [Compound I-40] |  |  | 734 ± 119 nM | 232 ± 54 nM |  |
| CCCCOc1ccc(-c2nn(-c3ccccc3)cc2C=C2C(=O)NC(=S)NC2=O)cc1 [VI-11] |  | 92 ± 20 nM | 1260 ± 138 nM |  |  |
| CCCCCCCOc1ccc(C=C(C#N)C#N)cc1 [Compound V-10] |  | 136 ± 13 nM |  |  | 1390 ± 255 nM |
| CN1C(=O)C(=Cc2ccc(OCCCC3CCCCC3)c(Cl)c2)C(=O)N(C)C1=O [Compound I-27] | 29% |  |  | 240 ± 20 nM |  |
| O=C(O)CN1C(=O)S/C(=C2\C(=O)N(CCCc3ccccc3)c3ccccc32)C1=O [II-04] |  | 2400 ± 132 nM |  |  | 747 ± 163 nM |
| CN1C(=O)C(=Cc2ccc(OCCCC3CCCCC3)c([N+](=O)[O-])c2)C(=O)N(C)C1=O [Compound I-29] | 41% |  |  | 188 ± 21 nM |  |
